Experiments:
[1] = molecular target: Sphingosine 1-phosphate receptor 2 (Rattus norvegicus, UniProt P47752); format: functional
[2] = molecular target: Sphingosine 1-phosphate receptor 2 (Homo sapiens, UniProt O95136); format: functional
CREB-binding protein = CREB-binding protein (Homo sapiens, UniProt Q92793)
Chain of CREB-binding protein (Q92793 whole entry): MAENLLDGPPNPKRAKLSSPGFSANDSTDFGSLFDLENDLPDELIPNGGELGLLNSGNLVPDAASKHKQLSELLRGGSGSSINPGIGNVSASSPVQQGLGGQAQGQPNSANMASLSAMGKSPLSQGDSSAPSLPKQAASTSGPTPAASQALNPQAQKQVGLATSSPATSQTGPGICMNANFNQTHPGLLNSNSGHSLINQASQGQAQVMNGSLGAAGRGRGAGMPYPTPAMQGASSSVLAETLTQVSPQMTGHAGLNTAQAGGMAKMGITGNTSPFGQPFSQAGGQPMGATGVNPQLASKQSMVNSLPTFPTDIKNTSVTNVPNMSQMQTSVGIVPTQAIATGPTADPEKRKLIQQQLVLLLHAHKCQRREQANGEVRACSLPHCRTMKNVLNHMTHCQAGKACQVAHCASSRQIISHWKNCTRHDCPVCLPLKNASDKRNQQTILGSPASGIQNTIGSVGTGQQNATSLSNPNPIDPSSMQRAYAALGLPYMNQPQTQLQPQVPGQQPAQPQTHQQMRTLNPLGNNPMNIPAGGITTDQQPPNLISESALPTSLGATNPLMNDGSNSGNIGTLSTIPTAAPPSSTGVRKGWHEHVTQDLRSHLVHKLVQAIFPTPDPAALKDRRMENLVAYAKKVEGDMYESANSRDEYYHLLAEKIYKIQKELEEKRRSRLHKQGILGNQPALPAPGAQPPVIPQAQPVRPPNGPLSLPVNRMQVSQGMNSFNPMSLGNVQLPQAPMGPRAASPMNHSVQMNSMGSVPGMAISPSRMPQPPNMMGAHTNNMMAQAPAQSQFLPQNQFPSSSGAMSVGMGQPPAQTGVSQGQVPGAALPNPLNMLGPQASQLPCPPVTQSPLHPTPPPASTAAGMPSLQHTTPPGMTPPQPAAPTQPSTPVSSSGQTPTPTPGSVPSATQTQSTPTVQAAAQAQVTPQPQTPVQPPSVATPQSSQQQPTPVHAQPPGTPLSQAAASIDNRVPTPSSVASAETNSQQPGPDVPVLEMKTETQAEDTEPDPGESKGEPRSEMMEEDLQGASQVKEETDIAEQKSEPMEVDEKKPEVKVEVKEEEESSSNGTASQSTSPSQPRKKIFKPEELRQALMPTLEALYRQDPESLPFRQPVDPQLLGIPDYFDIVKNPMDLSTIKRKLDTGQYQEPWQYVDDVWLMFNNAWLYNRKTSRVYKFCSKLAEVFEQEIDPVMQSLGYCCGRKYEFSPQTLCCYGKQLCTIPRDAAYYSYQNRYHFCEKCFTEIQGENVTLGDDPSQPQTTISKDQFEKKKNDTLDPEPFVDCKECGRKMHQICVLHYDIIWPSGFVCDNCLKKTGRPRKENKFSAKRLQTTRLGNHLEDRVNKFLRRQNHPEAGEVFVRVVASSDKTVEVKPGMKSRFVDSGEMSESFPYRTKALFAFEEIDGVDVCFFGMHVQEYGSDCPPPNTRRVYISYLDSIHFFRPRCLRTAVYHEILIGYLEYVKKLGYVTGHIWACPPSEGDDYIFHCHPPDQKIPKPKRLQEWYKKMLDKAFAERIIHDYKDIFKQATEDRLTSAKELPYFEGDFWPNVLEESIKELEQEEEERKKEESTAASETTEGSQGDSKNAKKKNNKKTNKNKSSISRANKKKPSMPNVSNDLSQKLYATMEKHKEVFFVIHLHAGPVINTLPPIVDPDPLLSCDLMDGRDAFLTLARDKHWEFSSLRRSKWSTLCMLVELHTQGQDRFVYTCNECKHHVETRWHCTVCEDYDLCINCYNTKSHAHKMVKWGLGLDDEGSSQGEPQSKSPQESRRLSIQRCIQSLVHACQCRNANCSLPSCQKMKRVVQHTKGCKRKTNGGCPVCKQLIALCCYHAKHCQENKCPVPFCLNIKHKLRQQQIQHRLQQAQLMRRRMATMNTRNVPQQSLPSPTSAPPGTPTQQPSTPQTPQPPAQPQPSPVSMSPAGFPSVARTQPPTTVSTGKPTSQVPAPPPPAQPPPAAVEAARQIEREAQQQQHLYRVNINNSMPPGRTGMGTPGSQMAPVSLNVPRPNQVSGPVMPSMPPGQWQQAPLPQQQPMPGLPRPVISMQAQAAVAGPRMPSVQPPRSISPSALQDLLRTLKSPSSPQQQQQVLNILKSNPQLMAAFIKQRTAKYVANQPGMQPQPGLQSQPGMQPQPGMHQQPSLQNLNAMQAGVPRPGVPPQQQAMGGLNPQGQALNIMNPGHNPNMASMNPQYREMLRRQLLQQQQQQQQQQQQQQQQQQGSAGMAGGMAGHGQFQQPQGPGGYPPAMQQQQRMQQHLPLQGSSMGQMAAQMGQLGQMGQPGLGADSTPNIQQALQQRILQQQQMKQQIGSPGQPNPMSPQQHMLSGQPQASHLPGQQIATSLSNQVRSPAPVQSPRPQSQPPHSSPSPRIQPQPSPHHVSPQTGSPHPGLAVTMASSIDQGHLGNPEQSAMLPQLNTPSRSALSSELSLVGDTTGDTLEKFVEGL

Chain of Sphingosine 1-phosphate receptor 2 (Homo sapiens, UniProt O95136) (O95136 whole entry): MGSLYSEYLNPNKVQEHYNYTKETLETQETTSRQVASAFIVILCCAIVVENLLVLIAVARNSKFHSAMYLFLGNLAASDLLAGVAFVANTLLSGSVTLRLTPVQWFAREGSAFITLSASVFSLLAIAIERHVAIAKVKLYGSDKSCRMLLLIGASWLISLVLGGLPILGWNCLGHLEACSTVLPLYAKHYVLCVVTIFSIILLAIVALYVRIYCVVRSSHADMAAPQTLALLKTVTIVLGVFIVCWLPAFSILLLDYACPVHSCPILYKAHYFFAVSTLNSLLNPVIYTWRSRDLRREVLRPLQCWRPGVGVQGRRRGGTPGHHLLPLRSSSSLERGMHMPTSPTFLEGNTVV
Chain of Sphingosine 1-phosphate receptor 2 (Rattus norvegicus, UniProt P47752) (P47752 whole entry): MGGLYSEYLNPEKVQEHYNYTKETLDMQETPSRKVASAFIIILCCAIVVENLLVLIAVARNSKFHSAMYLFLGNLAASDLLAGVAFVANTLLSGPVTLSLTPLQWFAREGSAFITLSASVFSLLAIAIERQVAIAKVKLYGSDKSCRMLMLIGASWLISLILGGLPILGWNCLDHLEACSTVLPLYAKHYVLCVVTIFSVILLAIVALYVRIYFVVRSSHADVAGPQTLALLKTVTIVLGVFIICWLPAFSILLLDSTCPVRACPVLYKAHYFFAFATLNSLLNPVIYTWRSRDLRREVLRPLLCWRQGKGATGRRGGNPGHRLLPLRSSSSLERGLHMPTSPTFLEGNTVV

Row | IC50 [1] | IC50 [2] | IC50 (CREB-binding protein) | SMILES
1 | 20 nM | 20 nM |  | Cc1nn(C)c2nc(NNC(=O)Nc3cc(Cl)nc(Cl)c3)cc(C(C)C)c12
2 |  |  | 3 µM | O=C1[C@H](Cc2ccc(O)cc2)N2C(=O)CCN(C(=O)NCc3ccccc3)[C@H]2CN1Cc1cccc2ccccc12

From ChEMBL document CHEMBL4270539, “Fibrogenic Disorders in Human Diseases: From Inflammation to Organ Dysfunction” (J Med Chem, 2018)
